Marks after values point to notes of the source that are not given here.
Columns and labels:
[1] = biological target: mGlu1 receptor (Rattus norvegicus, UniProt P23385); assay: [3H]Compound A binding to rat brain membranes (cortex, hippocampus, striatum, cerebellum)
Description: Tissue preparation. Male Wistar rats (˜200 g) were sacrificed by decapitation. The brains were rapidly removed and cortex, hippocampus, striatum and cerebellum were immediately dissected. The fresh tissue was homogenized with an Ultra Turrax in 20 volumes of 50 mM Tris-HCl, pH 7.4 and tissue was centrifuged at 23,500 g for 10 min. After homogenisation using a DUAL homogeniser, membranes were washed twice by centrifugation at 23,500 g for 10 min. The final pellet was suspended in 10 volumes of 50 mM Tris-HCl, pH 7.4 and frozen at −80° C.
In vitro binding assay. After thawing, membranes from rat cortex, cerebellum, striatum and hippocampus were rehomogenized using a DUAL and suspended in ice-cold binding buffer containing 50 mM Tris-HCl, 1.2 mM MgCl2, 2 mM CaCl2, pH 7.4. The binding assay was carried out in a total volume of 0.5 ml containing 2.5 nM [^3H]Compound A and a membrane aliquot corresponding to 40 μg for cerebellar membranes, 60 μg for hippocampal membranes, 80 μg for striatal membranes or 150 μg for cortical membranes. […] After incubation for 30 min at 4° C., the labelled membranes were washed and harvested by rapid vacuum filtration over Whatman GF/C glass-fibre filters using a 40-well filtration manifold and radioactivity collected on the filters was counted as above.
Data analysis was performed using the GraphPad Prism program (GraphPad Prism Software, Inc., San Diego, Calif.). Saturation binding experiments were analysed using a non-linear regression analysis. Inhibition curves were fitted using non-linear regression analysis fitting the one-site competition equation: Y=Bottom+((Top−Bottom)/1+10^X-LogIC50). Ki values were calculated using the Cheng-Prusoff equation: Ki=IC50/[1+([C]/KD)] where C is the concentration of radioligand and KD is the dissociation constant of the radioligand (Cheng and Prusoff, Biochem. Pharmacol. 22, 3099-3108, 1973). The observed on (kob) and off (koff) rate were calculated from association-dissociation curves using the one-phase-exponential association and decay equations in the Prism program, respectively. kon was calculated by subtracting koff from kob and dividing by the radioligand concentration. The two-tailed Student's t-test was used for statistical evaluation of the binding data: * p<0.05, ** p<0.01 and *** p<0.001. The Dunnett's t-test following a 2-way analysis of variance (with as factors compound concentration and experiment) were used to analyse the data from the IP experiments.

[2] = biological target: T1, rat mGlu3 receptor (Rattus norvegicus, UniProt P31422); assay: [3H]Compound A binding to membranes from CHO-dhfr− cells expressing the rat mGlu3 receptor; conditions: 20 nM [3H]Compound A, 40 μg membranes
T1 construct: host or cells: CHO-dhfr- cells
Description: (§1) Confluent cells were washed in ice-cold phosphate-buffered saline and stored at −20° C. until membrane preparation. After thawing, cells were suspended in 50 mM Tris-HCl, pH 7.4 and collected through centrifugation for 10 min at 23,500 g at 4° C. The cells were lysed in 10 mM hypotonic Tris-HCl, pH 7.4. After recentrifugation for 20 min at 30,000 g at 4° C., the pellet was homogenized with an Ultra Turrax homogenizer in 50 mM Tris-HCl, pH 7.4. Protein concentrations were measured by the Bio-Rad protein assay using bovine serum albumin as standard.
(§2) After thawing, the membranes were homogenized using an Ultra Turrax homogenizer and suspended in ice-cold binding buffer containing 50 mM Tris-HCl (pH 7.4), 1.2 mM MgCl2, 2 mM CaCl2. For [^3H]Compound A binding, 20 to 160 μg membrane protein and a final concentration of 20 nM [^3H]Compound A was used. As indicated in the results section, different blancs were used to define non-specific binding. Incubation time and temperature as well as filtration were as described for rat mGlu1a receptor CHO-dhfr^− membranes. Expression of rat mGlu2, -3, -5 and mGlu6 receptors was confirmed by specific binding of [^3H]LY341495 (mGlu2, -3 and -6) or [^3H]MPEP (mGlu5). For [^3H]LY341495 binding, 1 nM (mGlu2 and mGlu3) or 10 nM (mGlu6) [^3H]LY341495 was used. […] Assay mixtures were incubated for 30 min (mGlu2 and mGlu3) or 60 min (mGlu6) at 4° C. […]

[3] = biological target: T2, rat mGlu2 receptor (Rattus norvegicus, UniProt P31421); assay: [3H]Compound A binding to membranes from CHO-dhfr− cells expressing the rat mGlu2 receptor; conditions: 20 nM [3H]Compound A, 40 μg membranes
T2 construct: host or cells: CHO-dhfr- cells
Description: as §1, §2

[4] = membranes from rat cerebellum, mean ± SD, 3 experiments
[5] = membranes from rat cortex, mean ± SD, 3 experiments
[6] = membranes from rat hippocampus, mean ± SD, 3 experiments
[7] = membranes from rat striatum, mean ± SD, 3 experiments

T1 sequence (P31422 23-879): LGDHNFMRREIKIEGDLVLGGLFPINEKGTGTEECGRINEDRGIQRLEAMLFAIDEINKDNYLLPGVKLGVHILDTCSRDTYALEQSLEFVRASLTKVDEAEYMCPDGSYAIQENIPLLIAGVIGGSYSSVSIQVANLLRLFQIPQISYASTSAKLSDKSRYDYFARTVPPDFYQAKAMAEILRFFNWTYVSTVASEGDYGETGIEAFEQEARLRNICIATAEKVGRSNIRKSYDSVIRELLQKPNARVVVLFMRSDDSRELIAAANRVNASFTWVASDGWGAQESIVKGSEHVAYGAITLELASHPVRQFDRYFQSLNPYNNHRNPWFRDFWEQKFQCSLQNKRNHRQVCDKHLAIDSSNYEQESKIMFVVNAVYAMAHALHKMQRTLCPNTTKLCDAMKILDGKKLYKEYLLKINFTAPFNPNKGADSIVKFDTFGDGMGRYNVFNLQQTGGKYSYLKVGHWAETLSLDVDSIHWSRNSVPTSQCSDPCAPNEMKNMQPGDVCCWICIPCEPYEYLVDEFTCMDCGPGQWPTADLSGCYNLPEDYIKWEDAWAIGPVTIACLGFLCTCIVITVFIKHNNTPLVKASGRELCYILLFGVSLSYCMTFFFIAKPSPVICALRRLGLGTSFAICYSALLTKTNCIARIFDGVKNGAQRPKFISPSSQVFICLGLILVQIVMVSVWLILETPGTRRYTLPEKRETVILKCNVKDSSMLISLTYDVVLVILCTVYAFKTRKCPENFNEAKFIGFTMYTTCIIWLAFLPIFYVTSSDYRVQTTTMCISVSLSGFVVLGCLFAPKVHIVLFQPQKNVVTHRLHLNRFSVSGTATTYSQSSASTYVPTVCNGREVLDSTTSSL
T2 sequence (P31421 19-872): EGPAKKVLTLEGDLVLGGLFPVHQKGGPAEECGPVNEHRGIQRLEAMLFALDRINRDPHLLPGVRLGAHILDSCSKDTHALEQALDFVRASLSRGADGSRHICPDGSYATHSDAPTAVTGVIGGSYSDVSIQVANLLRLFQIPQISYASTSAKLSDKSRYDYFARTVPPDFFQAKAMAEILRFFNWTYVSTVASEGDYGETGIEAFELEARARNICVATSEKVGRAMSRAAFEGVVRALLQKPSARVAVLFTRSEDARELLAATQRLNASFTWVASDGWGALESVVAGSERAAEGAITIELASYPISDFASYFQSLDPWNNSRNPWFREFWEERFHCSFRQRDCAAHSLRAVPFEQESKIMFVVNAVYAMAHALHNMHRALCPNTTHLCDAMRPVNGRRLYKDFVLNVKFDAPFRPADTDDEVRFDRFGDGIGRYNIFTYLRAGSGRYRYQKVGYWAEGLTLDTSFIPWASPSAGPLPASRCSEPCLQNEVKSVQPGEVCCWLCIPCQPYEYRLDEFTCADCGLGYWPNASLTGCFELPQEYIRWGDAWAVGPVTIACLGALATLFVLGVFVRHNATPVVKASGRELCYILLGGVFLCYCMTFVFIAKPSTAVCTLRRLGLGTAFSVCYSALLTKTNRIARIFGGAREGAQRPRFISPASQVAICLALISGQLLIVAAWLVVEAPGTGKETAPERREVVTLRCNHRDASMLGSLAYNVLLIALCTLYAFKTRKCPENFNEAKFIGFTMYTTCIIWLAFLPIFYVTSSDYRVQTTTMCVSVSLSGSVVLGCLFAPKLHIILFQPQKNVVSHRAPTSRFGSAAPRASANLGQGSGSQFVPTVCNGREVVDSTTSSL

Kd ([1]; all structures (cortex, hippocampus, striatum, cerebellum)): ~1000 pM | non-specific binding compared to total binding ([1]; cerebellum): 10% | non-specific binding compared to total binding ([1]; cortex): 25% | number of sites labelled as % of the number found in the cerebellum ([1]; cortex): 11% | non-specific binding compared to total binding ([1]; hippocampus): 30% | number of sites labelled as % of the number found in the cerebellum ([1]; hippocampus): about 16% | Bmax [1, 4]: 4302 ± 2042 fmoles/mg protein | Kd [1, 4]: 990 ± 360 pM | Bmax [1, 5]: 471 ± 68 fmoles/mg protein | Kd [1, 5]: 1040 ± 400 pM | Bmax [1, 6]: 688 ± 125 fmoles/mg protein | Kd [1, 6]: 720 ± 220 pM | Bmax [1, 7]: 741 ± 48 fmoles/mg protein | Kd [1, 7]: 840 ± 230 pM | non-specific binding compared to total binding ([1]; striatum): 25% | number of sites labelled as % of the number found in the cerebellum ([1]; striatum): about 16% | SB (fmoles/mg protein), mGlu3 ([2]; Compound 135 as blanc): 0 fmoles/mg protein | SB (fmoles/mg protein), mGlu3 ([2]; various blancs: 1 mM glutamate): 0^a fmoles/mg protein | melting point: 195 °C | SB (fmoles/mg protein), mGlu2 ([3]; Compound 135 as blanc): 0 fmoles/mg protein | SB (fmoles/mg protein), mGlu2 ([3]; various blancs: 1 mM glutamate): 34^a fmoles/mg protein
SMILES: [3H]c1ccc(CC(=O)c2ccc3nc4c(cc3c2)CCCO4)cc1 [[^3H]Compound A]

— patent US7517517B2 (Janssen Pharmaceutica N.V., priority 2002, dated 2009)
